Measurements: patent US12134587B2, “Reaction products and methods for making and using the same” (KOCH AGRONOMIC SERVICES, LLC, priority 2010, dated 2024)

Test system: nitrification of ammonium to nitrate in Greenville loamy soil
Assay: Soil incubation test of nitrogen transformations (ammonium-N and nitrate-N)
Protocol: Three reaction products (Ex. 1-3) mixed with a urea solution to produce a liquid fertilizer solution were prepared and incubation tests were conducted. A comparative example of a urea only solution, i.e., a urea solution without a reaction product (C1), and a comparative example of a urea solution mixed with dicyandiamide (DCD) (C2) were also prepared and evaluated. For comparative example C2, the urea solution mixed with DCD was not reacted. In other words, the DCD was mixed with the urea solution to provide the fertilizer. A Control was also prepared that consisted of soil, i.e., no nitrogen source nor reaction product was added.
Incubation tests were performed using each Example 1-3 to evaluate the nitrogen transformations for each sample. The effect of each reaction product (Ex. 1-3) on the nitrogen concentration in the soil as both ammonium-nitrogen and nitrate-nitrogen were evaluated at three different concentrations of the reaction products. More particularly, the concentration of DCD for a first set of samples was 0.75 wt. % (Table 1), a second set of samples was 1.5 wt. % (Table 2), and a third set of samples was 3 wt. % (Table 3), where the weight percents of the DCD concentration are based on the total weight of nitrogen in the urea solution.
The soil used in the incubation tests was Greenville loamy soil (clay-loam, siliceous, thermic Plinthic Kandiudults). […] The phosphorous and sulfur concentrations were determined according to the Bray-1 test. The zinc concentration was determined according to the DTPA (diethylenetriaminepentaacetic acid) soil test.
As used herein, the term “field capacity,” refers to the drained upper limit or moisture content below which there is no free drainage flow. During the one week incubation period the moisture was reduced to about 80%. For each test 50 g of soil was placed into a cup and each cup was covered with a lid having four holes to allow for aeration and to minimize water loss.
Stock solutions containing each example were prepared by adding 2.15 g of urea and the corresponding amount of DCD (C2) or the reaction product (Ex. 1-3) to a 500 mL beaker to provide samples having 0.75 wt. % (Table 1), 1.5 wt. % (Table 2), and 3 wt. % (Table 3) DCD based on the total nitrogen concentration in the urea solution. After adding the urea (C1), urea plus DCD (C2), and urea plus the reaction products (Ex. 1-3), to the beakers, the contents of each beaker were diluted to 500 mL with distilled water to provide a stock solution. For the examples shown in Tables 1-3 below, 5 mL of the corresponding stock solution were introduced via a pipette onto each 50 g soil sample and the cover was placed thereon. The amount of nitrogen contained in each example (Ex. 1-3, C1, and C2) was 10 mg and the nitrogen was in the form of urea. The soil had at least an 80% field moisture capacity for each sample and if needed additional distilled water was used in order to achieve the 80% field moisture capacity.
Soil extractions were made at 1 week intervals to determine the amount of ammonium-nitrogen and nitrate-nitrogen in each example. A total of 10 extractions were performed, namely at time=0 and after the 1st week, 2nd week, 3rd week, 4th week, 5th week, 6th week, 7th week, 8th week, and the […]. Extracting the nitrogen from each sample was done by adding 100 mL of a 2M potassium chloride (KCl) solution to each soil sample to be tested. The amount of nitrogen in the form of ammonium (NH4^+) and nitrate (NO3^−) were then determined.
The amount of ammonium was determined using the well-known Berthelot reaction in which ammonia is chlorinated to monochloroamine, which then reacts with salicylate to form 5-aminosalicylate. After oxidation and oxidative coupling, a green color complex was formed which was measured at 660 nm using a spectrophotometer.
The determination of nitrate was determined based on the reduction of nitrate (NO3) to […] (NO2) by hydrazinium sulfate or cadmium metal. […]

[1] = 0.75 wt. % DCD based on nitrogen in urea solution, Wk. 0
[2] = 1.5 wt. % DCD Based on the Weight of Nitrogen in the Fertilizer, Wk. 0
[3] = 3 wt. % DCD Based on the Weight of Nitrogen in the Fertilizer, Wk. 0

In the case of `NC(N)=O` [C1, urea], the “Ammonium (NH4^+)” value [1] is reported as 0.39 mg N, the “Nitrate (NO3^−)” value [1] is reported as 1.27 mg N and the “Ammonium (NH4^+)” value (0.75 wt. % DCD, Wk. 1) is reported as 6.81 mg N. For the same molecule, the “Nitrate (NO3^−)” value (0.75 wt. % DCD, Wk. 1) was 3.61 mg N, the “Ammonium (NH4^+)” value (0.75 wt. % DCD, Wk. 2) was 4.21 mg N and the “Nitrate (NO3^−)” value (0.75 wt. % DCD, Wk. 2) was 6.37 mg N. The “Ammonium (NH4^+)” value (0.75 wt. % DCD, Wk. 3) was 2.14 mg N, the “Nitrate (NO3^−)” value (0.75 wt. % DCD, Wk. 3) was 8.38 mg N and the “Ammonium (NH4^+)” value (0.75 wt. % DCD, Wk. 4) was 0.18 mg N. For the same molecule, the “Nitrate (NO3^−)” value (0.75 wt. % DCD, Wk. 4) was 10.45 mg N, the “Ammonium (NH4^+)” value (0.75 wt. % DCD, Wk. 5) was 0.08 mg N and the “Nitrate (NO3^−)” value (0.75 wt. % DCD, Wk. 5) was 10.69 mg N. The “Ammonium (NH4^+)” value (0.75 wt. % DCD, Wk. 6) was 0.08 mg N, the “Nitrate (NO3^−)” value (0.75 wt. % DCD, Wk. 6) was 10.66 mg N and the “Ammonium (NH4^+)” value (0.75 wt. % DCD, Wk. 7) was 0.09 mg N. For the same molecule, the “Nitrate (NO3^−)” value (0.75 wt. % DCD, Wk. 7) was 10.85 mg N, the “Ammonium (NH4^+)” value (0.75 wt. % DCD, Wk. 8) was 0.10 mg N and the “Nitrate (NO3^−)” value (0.75 wt. % DCD, Wk. 8) was 10.97 mg N. For the same molecule, the “Ammonium (NH4^+)” value (0.75 wt. % DCD, Wk. 10) was 0.04 mg N, the “Nitrate (NO3^−)” value (0.75 wt. % DCD, Wk. 10) was 10.98 mg N and the “Ammonium (NH4^+)” value [2] was 0.39 mg N. The “Nitrate (NO3^−)” value [2] was 1.27 mg N, the “Ammonium (NH4^+)” value (1.5 wt. % DCD, Wk. 1) was 6.81 mg N and the “Nitrate (NO3^−)” value (1.5 wt. % DCD, Wk. 1) was 3.61 mg N. The “Ammonium (NH4^+)” value (1.5 wt. % DCD, Wk. 2) was 4.21 mg N, the “Nitrate (NO3^−)” value (1.5 wt. % DCD, Wk. 2) was 6.37 mg N and the “Ammonium (NH4^+)” value (1.5 wt. % DCD, Wk. 3) was 2.14 mg N. For the same molecule, the “Nitrate (NO3^−)” value (1.5 wt. % DCD, Wk. 3) was 8.38 mg N, the “Ammonium (NH4^+)” value (1.5 wt. % DCD, Wk. 4) was 0.18 mg N and the “Nitrate (NO3^−)” value (1.5 wt. % DCD, Wk. 4) was 10.45 mg N. For the same molecule, the “Ammonium (NH4^+)” value (1.5 wt. % DCD, Wk. 5) was 0.08 mg N, the “Nitrate (NO3^−)” value (1.5 wt. % DCD, Wk. 5) was 10.69 mg N and the “Ammonium (NH4^+)” value (1.5 wt. % DCD, Wk. 6) was 0.08 mg N. The “Nitrate (NO3^−)” value (1.5 wt. % DCD, Wk. 6) was 10.66 mg N, the “Ammonium (NH4^+)” value (1.5 wt. % DCD, Wk. 7) was 0.09 mg N and the “Nitrate (NO3^−)” value (1.5 wt. % DCD, Wk. 7) was 10.85 mg N. The “Ammonium (NH4^+)” value (1.5 wt. % DCD, Wk. 8) was 0.10 mg N, the “Nitrate (NO3^−)” value (1.5 wt. % DCD, Wk. 8) was 10.97 mg N and the “Ammonium (NH4^+)” value (1.5 wt. % DCD, Wk. 10) was 0.04 mg N. For the same molecule, the “Nitrate (NO3^−)” value (1.5 wt. % DCD, Wk. 10) was 10.98 mg N, the “Ammonium (NH4^+)” value [3] was 0.39 mg N and the “Nitrate (NO3^−)” value [3] was 1.27 mg N. The “Ammonium (NH4^+)” value (3 wt. % DCD, Wk. 1) was 6.81 mg N, the “Nitrate (NO3^−)” value (3 wt. % DCD, Wk. 1) was 3.61 mg N and the “Ammonium (NH4^+)” value (3 wt. % DCD, Wk. 2) was 4.21 mg N. The “Nitrate (NO3^−)” value (3 wt. % DCD, Wk. 2) was 6.37 mg N, the “Ammonium (NH4^+)” value (3 wt. % DCD, Wk. 3) was 2.14 mg N and the “Nitrate (NO3^−)” value (3 wt. % DCD, Wk. 3) was 8.38 mg N. For the same molecule, the “Ammonium (NH4^+)” value (3 wt. % DCD, Wk. 4) was 0.18 mg N, the “Nitrate (NO3^−)” value (3 wt. % DCD, Wk. 4) was 10.45 mg N and the “Ammonium (NH4^+)” value (3 wt. % DCD, Wk. 5) was 0.08 mg N. For the same molecule, the “Nitrate (NO3^−)” value (3 wt. % DCD, Wk. 5) was 10.69 mg N, the “Ammonium (NH4^+)” value (3 wt. % DCD, Wk. 6) was 0.08 mg N and the “Nitrate (NO3^−)” value (3 wt. % DCD, Wk. 6) was 10.66 mg N. The “Ammonium (NH4^+)” value (3 wt. % DCD, Wk. 7) was 0.09 mg N, the “Nitrate (NO3^−)” value (3 wt. % DCD, Wk. 7) was 10.85 mg N and the “Ammonium (NH4^+)” value (3 wt. % DCD, Wk. 8) was 0.10 mg N. The “Nitrate (NO3^−)” value (3 wt. % DCD, Wk. 8) was 10.97 mg N, the “Ammonium (NH4^+)” value (3 wt. % DCD, Wk. 10) was 0.04 mg N and the “Nitrate (NO3^−)” value (3 wt. % DCD, Wk. 10) was 10.98 mg N.
